From patent US9290488B2, “Azetidine-substituted quinoxalines as opioid receptor like-1 modulators” (priority 2011, dated 2016)
Where two headings read alike, the source gives them in different places.

Columns and labels:
[1] = In vitro metabolic stability, rat liver microsomes; conditions: for Metabolic Stability (%) Rat: % of compound remaining after 30 min incubation at 37° C., 2 μM, 0.5 mg/mL rat liver microsomes
[2] = In vitro assay of free unbound compound (equilibrium dialysis of rat serum); conditions: for Free Unbound Drug Fraction (%): rat serum, 2 μg/mL, 24 h equilibrium dialysis at 37° C. against PBS
[3] = In vitro metabolic stability, human liver microsomes; conditions: % of compound remaining after 30 min incubation at 37° C., 2 μM, 0.5 mg/mL human liver microsomes
[4] = male, Crj:CD (SD), pH 7.4

CC12C[C@H]3C[C@@H](N4[C@@H]5CCC[C@H]4C[C@@H](n4c(=O)c(N6CCC[C@H]6C(=O)O)nc6ccccc64)C5)C[C@@H]1C[C@@H]2C3 [CC02, reference compound]
Metabolic Stability (%) Rat [1]: 97%
Free Unbound Drug Fraction (%) [2]: 1.2%
Metabolic Stability (%) Human [3]: 58%

CC[C@@H]1C[C@@H]2C[C@H](C1)C[C@@H](N1[C@@H]3CCC[C@H]1C[C@@H](n1c(=O)c(N4CC[C@H]4C(=O)O)nc4ccccc41)C3)C2 [B20a(ii)]
Metabolic Stability (%) Rat [1]: 84%
Free Unbound Drug Fraction (%) [2]: 3.3%
free unbound drug fraction, times greater than counterpart d=2 compound ([2]; ratio B20a(ii) / CC02, rat serum): over 2.7 times
Metabolic Stability (%) Human [3]: 70%

O=C(O)[C@@H]1CCCN1c1nc2ccccc2n([C@H]2C[C@H]3CCC[C@@H](C2)N3[C@H]2C[C@@H]3CCC[C@@H](C3)C2)c1=O [CC01, reference compound]
Metabolic Stability (%) Rat [1]: 100%

O=C(O)[C@@H]1CCN1c1nc2ccccc2n([C@H]2C[C@H]3COC[C@@H](C2)N3[C@H]2C[C@@H]3CCC[C@@H](C3)C2)c1=O [C2a(ii)]
Metabolic Stability (%) Rat [1]: 86%
metabolic stability upon exposure to rat liver microsomes, times greater than counterpart d=2 compound [4]: 2.6 times
Metabolic Stability (%) Human [3]: 67%

CC12C[C@H]3C[C@@H](N4[C@@H]5COC[C@H]4C[C@@H](n4c(=O)c(N6CCC[C@H]6C(=O)O)nc6ccccc64)C5)C[C@@H]1C[C@@H]2C3 [CC04, reference compound]
Metabolic Stability (%) Rat [1]: 14%
Metabolic Stability (%) Human [3]: 21%

CC12C[C@H]3C[C@@H](N4[C@@H]5COC[C@H]4C[C@@H](n4c(=O)c(N6CC[C@H]6C(=O)O)nc6ccccc64)C5)C[C@@H]1C[C@@H]2C3 [C20a(ii)]
Metabolic Stability (%) Rat [1]: 62%
metabolic stability upon exposure to rat liver microsomes, times greater than counterpart d=2 compound ([1]; ratio d=1 compound / d=2 counterpart, rat liver microsomes): over 4.4 times
Metabolic Stability (%) Human [3]: 6.5%

O=C(O)[C@@H]1CCCN1c1nc2ccccc2n([C@H]2C[C@H]3COC[C@@H](C2)N3[C@H]2C[C@@H]3CCC[C@@H](CC3)C2)c1=O [CC03, reference compound]
Metabolic Stability (%) Rat [1]: 33%
Metabolic Stability (%) Human [3]: 60%
